Source: patent US12351574B2, “Selective ligands for modulation of GIRK channels” (Northeastern University, priority 2018, dated 2025)

Assays:
GIRK1/4 = target: T1, GIRK1/4 (Homo sapiens, UniProt P48544+P48549); experiment: current inhibition by light-activated phosphatase 5-ptaseOCRL, HEK293 whole-cell patch-clamp, GIRK1/4; format: cell-based; set-up: expressed in transfected cells; settings: HEK-293 cells
T1 sequence (P48549 1-501): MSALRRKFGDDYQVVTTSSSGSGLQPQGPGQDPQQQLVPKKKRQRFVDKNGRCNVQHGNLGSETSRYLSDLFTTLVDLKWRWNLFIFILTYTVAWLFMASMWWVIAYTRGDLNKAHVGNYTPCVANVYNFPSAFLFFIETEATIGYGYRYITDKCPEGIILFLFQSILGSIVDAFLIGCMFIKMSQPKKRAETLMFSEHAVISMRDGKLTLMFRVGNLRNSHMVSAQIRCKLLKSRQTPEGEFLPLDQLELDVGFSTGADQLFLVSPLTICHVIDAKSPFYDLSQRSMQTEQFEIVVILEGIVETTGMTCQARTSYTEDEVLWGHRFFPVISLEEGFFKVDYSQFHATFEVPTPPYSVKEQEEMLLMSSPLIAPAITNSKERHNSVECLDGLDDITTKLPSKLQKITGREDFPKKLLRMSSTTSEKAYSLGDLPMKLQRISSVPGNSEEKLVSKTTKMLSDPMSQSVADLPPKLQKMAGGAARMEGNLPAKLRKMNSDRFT
T1 sequence (P48544 1-419): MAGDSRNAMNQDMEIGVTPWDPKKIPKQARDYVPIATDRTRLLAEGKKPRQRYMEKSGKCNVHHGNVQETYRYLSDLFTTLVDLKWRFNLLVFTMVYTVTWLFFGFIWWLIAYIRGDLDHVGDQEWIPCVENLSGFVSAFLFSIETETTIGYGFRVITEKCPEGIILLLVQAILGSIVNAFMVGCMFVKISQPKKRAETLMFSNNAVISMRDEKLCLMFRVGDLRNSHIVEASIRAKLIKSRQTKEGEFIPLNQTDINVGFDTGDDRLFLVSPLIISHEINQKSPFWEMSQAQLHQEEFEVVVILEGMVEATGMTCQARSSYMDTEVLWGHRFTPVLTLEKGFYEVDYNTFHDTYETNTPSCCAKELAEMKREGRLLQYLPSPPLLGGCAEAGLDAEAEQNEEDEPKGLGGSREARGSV
Source text: (§1) The inventors next pursued whole-cell patch-clamp experiments to further validate the model predictions and excised-patch results. Expression of a light-activated phosphatase that upon exposure to blue light dephosphorylates PI(4,5)P2 to PI(4)P and inhibits GIRK currents allowed recording of macroscopic currents in the absence and presence of ML297 and the two brain-specific GAT compounds. […] Since GAT1508 and ML297 only bind GIRK1 or GIRK1-like (i.e. “FD-containing”, “FD”=mimics the contribution of GIRK1 residues F137 and D173, see Example 2) subunits resulting in corresponding changes in channel-PIP2 interactions and channel activity, the inventors next sought to compare channel subunit specific interactions with PIP2 for subunits bound to the ligand (P-FD) versus those not bound to the ligand (P-WT) (FIGS. 19, 38A).
Culture of HEK293 cells: HEK293-T cells were obtained from ATCC and maintained in DMEM medium supplemented with 10% FBS and 1% penicillin and streptomycin (Hyclone). For patch-clamp studies, cells were seeded on glass coverslips and transfected 24-hours later using a polyethylenimine solution (1 mg/ml) at a ratio of 8 μl per μg of DNA. To study GIRK-currents, cells were transfected with 0.75 μg each of plasmids encoding GIRK1, GIRK2 or GIRK4 as indicated. In the optogenetic experiments, cells were co-transfected with plasmids encoding 5-ptaseOCRL and CIBN-CAAX, as previously described. 5-ptaseOCRL and CIBN-CAAX were a kind gift from the DeCamilli lab, Yale CT. All experiments were performed at room temperature 24-36 hours post transfection. […]
Patch-clamp recording: Whole-cell currents were recorded with an Axopatch 200B amplifier (Molecular Devices) controlled via a USB-interface (National Instruments) using WinWCP software (University of Strathclyde). […] The barium-sensitive component of the current, observed when cells were perfused with the high-K^+ buffer, was analyzed and was determined by perfusing 5 mM BaCl2 in the high-K^+ buffer at the end of each experiment. […]

GIRK1/2 = target: T2, GIRK1/2 (UniProt P48542+P48549); experiment: current inhibition by light-activated phosphatase 5-ptaseOCRL, HEK293 whole-cell patch-clamp, GIRK1/2; format: cell-based, human GIRK1, mouse GIRK2; set-up: expressed in transfected cells; settings: for percentage of GIRK1/2 channel current remaining following activation of 5-ptaseOCRL (in words) / τ of current-inhibition, GIRK1/2 (in words): 10 μM compound versus control; for protection from current inhibition, rank order, GIRK1/2: current levels and kinetics of inhibition
T2 sequence (P48549 1-501): T1 sequence (P48549 1-501)
T2 sequence (P48542 1-425): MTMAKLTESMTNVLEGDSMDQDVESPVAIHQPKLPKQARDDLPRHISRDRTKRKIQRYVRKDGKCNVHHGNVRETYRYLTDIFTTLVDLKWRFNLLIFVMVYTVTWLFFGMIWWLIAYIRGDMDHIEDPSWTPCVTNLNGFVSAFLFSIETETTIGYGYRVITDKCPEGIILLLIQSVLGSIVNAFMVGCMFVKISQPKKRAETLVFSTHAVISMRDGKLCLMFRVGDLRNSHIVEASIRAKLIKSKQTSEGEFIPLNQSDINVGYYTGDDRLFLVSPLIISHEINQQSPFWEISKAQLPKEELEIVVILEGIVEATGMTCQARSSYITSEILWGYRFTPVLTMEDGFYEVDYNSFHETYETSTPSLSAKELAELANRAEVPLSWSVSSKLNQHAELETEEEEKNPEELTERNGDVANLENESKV
Source text: as §1
Culture of HEK293 cells: HEK293-T cells were obtained from ATCC and maintained in DMEM medium supplemented with 10% FBS and 1% penicillin and streptomycin (Hyclone). For patch-clamp studies, cells were seeded on glass coverslips and transfected 24-hours later using a polyethylenimine solution (1 mg/ml) at a ratio of 8 μl per μg of DNA. To study GIRK-currents, cells were transfected with 0.75 μg each of plasmids encoding GIRK1, GIRK2 or GIRK4 as indicated. In the optogenetic experiments, cells were co-transfected with plasmids encoding 5-ptaseOCRL and CIBN-CAAX, as previously described. 5-ptaseOCRL and CIBN-CAAX were a kind gift from the DeCamilli lab, Yale CT. All experiments were performed at room temperature 24-36 hours post transfection.
Light-activated phosphatase system: The inventors used a light-activated phosphatase system to dephosphorylate PIP2 that is comprised of two fusion proteins: CRY2-5-ptaseOCRL contains the photolyase domain of cryptochrome 2 (CRY2) and the inositol 5-phosphatase domain of the […] oculocerebrorenal syndrome protein (OCRL), while CIBN-CAAX contains the CRY2 binding domain (CIBN) and a C-terminal CAAX box for plasma membrane targeting. When CRY2-5-ptaseOCRL and CIBN-CAAX fusion proteins are co-expressed and exposed to blue light between 458-488 nm, the 5-ptase is localized to the plasma membrane, where it dephosphorylates PIP2. […] The 5-ptaseOCRL system was activated using a 460 nm LED (Luminus) that was focused on the cells through the objective lens of an inverted microscope (Nikon).
Patch-clamp recording: Whole-cell currents were recorded with an Axopatch 200B amplifier (Molecular Devices) controlled via a USB-interface (National Instruments) using WinWCP software (University of Strathclyde). Currents were acquired through a lowpass Bessel filter at 2 kHz and were digitized at 10 kHz. […] Cells for study were selected based on GFP expression using an epifluorescence microscope (Nikon). […] Cells were perfused via a multi-channel gravity-driven perfusion manifold with a physiological buffer comprising: 135 mM NaCl, 5 mM KCl, 1.2 mM MgCl2, 1.5 mM CaCl2, 8 mM Glucose, and 10 mM HEPES; pH 7.4, then quickly transitioning to a high-K^+ buffer comprising 5 mM NaCl, 135 mM KCl, 1.2 mM MgCl2, 1.5 mM CaCl2, 8 mM Glucose, and 10 mM HEPES; pH 7.4. The barium-sensitive component of the current, observed when cells were perfused with the high-K^+ buffer, was analyzed and was determined by perfusing 5 mM BaCl2 in the high-K^+ buffer at the end of each experiment. The 5-ptaseOCRL system was activated using a 460 nm LED (Luminus) that was focused on the cells through the objective lens of an inverted microscope (Nikon). […] ML297, GAT1508 or GAT1521 were maintained as 10 mM stock solutions in DMSO and were diluted to concentrations between 10 μM and 1 nM using the high K^+ buffer for patch-clamp experiments.

| SMILES | protection of GIRK1/4 currents from inhibition by the light-activated phosphatase (in words) (GIRK1/4) | percentage of GIRK1/2 channel current remaining following activation of 5-ptaseOCRL (in words) (GIRK1/2) | τ of current-inhibition, GIRK1/2 (in words) (GIRK1/2) | protection from current inhibition, rank order, GIRK1/2 (GIRK1/2) |
| --- | --- | --- | --- | --- |
| Cc1cc(NC(=O)Nc2ccc(Br)s2)n(-c2ccccc2)n1 [GAT1508, 1-(5-bromothiophen-2-yl)-3-(3-methyl-1-phenyl-1H-pyrazol-5-yl)urea] | not | increase | increase | GAT1508>GAT1521>ML297>Control |
| Cc1cc(NC(=O)Nc2ccc(C)s2)n(-c2ccccc2)n1 [GAT1521, 1-(3-methyl-1-phenyl-1H-pyrazol-5-yl)-3-(5-methylthiophen-2-yl)urea] | not | increase | increase | GAT1508>GAT1521>ML297>Control |
| Cc1cc(NC(=O)Nc2ccc(F)c(F)c2)n(-c2ccccc2)n1 [ML297, reference compound] | some protection | increase | increase | GAT1508>GAT1521>ML297>Control |
